Measured values: patent publication US20230257430A1, “RECOMBINANT PROTEINS FOR QUANTIFICATION OF PROTEIN LEVELS” (Genentech, Inc., priority 2020, published 2023)
Peptide text beside a SMILES is read from it. * marks the point of attachment. Cbz = O=C(OCc1ccccc1)*; CH2F = FC*

Key:
Assay type in all cases: cell-based, human
RAF1:BRAF heterodimers = assay: Immunoprecipitation of FLAG-tagged RAF1 (CRAF) in A549 RAF1 (CRAF) knockout cells; conditions: 250 nM, 24 hours
Description: Eluates were co-immunoprecipitated and blotted with the indicated antibodies.
To test whether RAF1 (CRAF) kinase activity is required for RASK (KRAS) mutant tumor cell growth, knockout cell lines of the three RAF isoforms were generated in a RASK (KRAS) mutant background. […] In the RAF1 (CRAF) knockout RASK (KRAS) mutant cells, stable expression of a panel of RAF1 (CRAF) mutants was established. […] Expression of RAF1 (CRAF) kinase-dead mutants including RAF1^D468N, RAF1^D486A, and RAF1^K375M(CRAF^D468N, CRAF^D486A, and CRAF^K375M) reduced pERK levels compared to cells expressing RAF1^wild-type (CRAF^wild-type) or RAF1^S259A (CRAF^S259A), a mutation which renders the RAF1 (CRAF) kinase constitutively active (FIG. 5C). RAF1 (CRAF) kinase-dead mutants either partially (RAF1^D468N (CRAF^D468N), RAF1^D486A(CRAF^D486A)) or fully (RAF1^K375M (CRAF^K375M)) rescued colony growth in RAF1 (CRAF)-deficient RASK (KRAS) mutant cells (FIGS. 4B and 5D). […] Functionally, the CRAF^K375M mutation completely abrogated MEK phosphorylation compared to CRAF^wild-type, but still rescued colony growth in RAF1-deficient RASK (KRAS) mutant cells (FIGS. 4C and 5C). […] Consistent with this, RAF1 (CRAF) kinase-dead mutants behaved like the RAF1 (CRAF) knockout, and were unable to rescue cell growth inhibition in the presence of MEK inhibitor compared to the cells expressing CRAF^wild-type (FIGS. 5E and 5F). […]

[1] = test system: CRAF:BRAF and CRAF:ARAF dimers; assay: PIKES targeted analysis (PRM-MS) of immunoprecipitated FLAG-tagged CRAF wild-type; conditions: 250 nM, 24 hours
Description: Collected eluates were then combined with 100 fmol of QconCAT reagent and samples were processed similarly to the cell line analysis above for PRM analysis. For PRM analysis, RAW files were loaded onto Skyline (v19.1). A target peptide list was generated from the QconCAT peptides for both unlabeled and heavy-labeled peptides with transition setting filtered for precursor charges 2 and 3, ion charges 1 and 2, and y-ion types. Selected peaks from product ions were reviewed manually. Both MS1 and MS/MS filtering were set to Orbitrap mass analyzer with 60,000 resolving power. Signal was summed for the top three product ions and normalized to the heavy labeled QconCAT internal standard for peptide quantification.

MAPK signaling = assay: Western blot analysis of MAPK pathway components in RASK (KRAS) mutant cancer cells; conditions: 250 nM, 24 hours
[2] = test system: ERK downstream substrates (MAPK target gene set); assay: mRNA sequencing of MAPK target gene set in RASK (KRAS) mutant cells; conditions: RNA-sequencing
Procedure: FIG. 2E is a graph showing the log 2 fold change in expression of a MAPK target gene set determined by mRNA sequencing in cancer cells treated with shARAF, shBRAF, or shCRAF. Cells were treated with 0.5 μg/mL doxycycline (DOX) for 72 hours. Cells were treated with a MEK inhibitor (GDC-0973) for 6 hours, 250 nM (n=3) or an ERK inhibitor (GDC-0994). Data are normalized to a non-targeting control (shNT) and DMSO (no DOX).
To confirm sustained MAPK activity in spite of RAF1 (CRAF) depletion, we performed a gene expression analysis for the MAPK downstream effectors DUSP6 and SPRTY upon RAF1 (CRAF) depletion in the examined RASK (KRAS) mutant cells lines. […] In order to delineate pathway alterations upon RAF1 (CRAF) depletion versus MAPK inhibition, RNA-sequencing analysis was performed. […] Thus, RAF kinases compensate to sustain MAPK signaling in comparison to MAPK inhibition.

[3] = test system: A549 RAF1 (CRAF) knockout (CRAF KO) cancer cells; assay: Soft-agar colony formation assay in A549 RAF1 (CRAF) knockout cells with MEK or ERK inhibitor dose titration; conditions: for cell survival of RAF1 (CRAF)-depleted cells: increasing the dose; for cell survival of RAF1 (CRAF) ablated RASK (KRAS) mutant cells: low-dose treatment
Description: FIG. 11F is a set of photomicrographs showing the results of a soft-agar colony formation assay in A549 parental and RAF1 (CRAF) knockout (CRAF KO) cancer cells upon treatment with DMSO or a MEK inhibitor (GDC-0973) at the indicated dose titrations. The colonies were labeled with MTT reagent and imaged using a GelCount imager.
FIG. 11G is a set of photomicrographs showing the results of a soft-agar colony formation assay in A549 parental and RAF1 (CRAF) knockout (CRAF KO) cancer cells upon treatment with DMSO or an ERK inhibitor (GDC-0994) at the indicated dose titrations. The colonies were labeled with MTT reagent and imaged using a GelCount imager.
Within the MAPK pathway, expression of BRAF^D631A mutation upon BRAF^wild-type loss induces cellular toxicity which impedes tumor development of RASK (KRAS) mutant lung tumors (Nieto et al., Nature, 548: 239-243, 2017; Yao et al., Nature, 548: 234-238, 2017). Importantly, pharmacological inhibition of ERK rescued tumor growth in this context (Nieto et al., Nature, 548: 239-243, 2017; Yao et al., Nature, 548: 234-238, 2017). […] Thus, oncogenic cellular stress induced by ARAF catalytic activity could be inhibited by low-dose MAPK inhibition, thereby promoting survival of RASK (KRAS) mutant cells.

[4] = test system: A549 cancer cells depleted of RAF1 (CRAF); assay: Soft-agar colony formation assay in A549 cells treated with shCRAF and co-treated with cell death inhibitors; conditions: single agent; ZVAD-FMK 20 μM, NEC1 30 μM, Bafilomycin 50 nM
Procedure: FIG. 12G is a set of photomicrographs showing the results of a soft-agar colony formation assay in A549 cancer cells upon treatment with shCRAF and co-treatment with the indicated inhibitors. […] Cells were co-treated with DMSO or inhibitors for cellular apoptosis (ZVAD-FMK, 20 μM), necroptosis (NEC1, 30 μM) or a combination of both (ZVAD-FMK, 10 μM; NEC1, 10 μM) and an autophagy inhibitor (Bafilomycin, 50 nM).
As ARAF catalytic function inhibits cell growth upon RAF1 (CRAF) loss, mechanisms by which ARAF limits growth of RASK (KRAS) mutant cells were investigated. Given that MAPK inhibition is associated with induction of cellular apoptosis (Yen et al., Cancer Cell, 34: 611-625, 2018), it was hypothesized that RAF1 (CRAF) ablation induces cell death, similar to MAPK inhibition in RASK (KRAS) mutants. […] Additionally, RAF1 (CRAF) ablation in a […] isogenic RASK (KRAS) mutant cell line (HCT116 p21^−/−) rescued cell growth inhibition mediated upon RAF1 (CRAF) loss (FIG. 12A). […] A chemical inhibitor approach was adopted to test whether cell growth inhibition upon RAF1 (CRAF) loss could be rescued by the treatment with apoptosis or autophagic inhibitors. […] Finally, a Gene Set Enrichment Analysis (GSEA) of targets involved in the apoptosis pathway was performed, but no significant enrichment of any apoptosis target gene set was observed upon acute depletion of ARAF, BRAF or RAF1 (CRAF) (FIG. 12I). […] Thus, RAF1 (CRAF) depletion promotes p21-mediated cell cycle arrest in RASK (KRAS) mutant cancer cells. Further, co-depletion of RAF1 (CRAF) and ARAF in RASK (KRAS) mutant cells abrogated the expression levels of p21 (FIG. 4E).

[5] = test system: A549 parental, ARAF KO, BRAF KO, RAF1 (CRAF) KO cancer cells; assay: Soft agar colony formation growth assay with pan-RAF inhibitor in RAF-depleted RASK (KRAS) mutant cells; conditions: 100 nM, 1 μM, 10 μM
Procedure: FIG. 4J is a set of photomicrographs showing the results of a soft agar colony formation growth assay for A549 cells (parental) or ARAF knockout (KO), BRAF KO, or RAF1 (CRAF) KO cancer cells treated with the pan-RAF inhibitor AZ-628 at 100 nm, 1 μM, and 10 μM concentrations. Colonies were stained with MTT dye and imaged using a GelCount imager.
FIG. 6G is a set of photomicrographs showing the results of a soft agar colony formation growth assay for the indicated cancer cells treated with non-targeting shRNAs (shNT) or shRNA targeting ARAF (shARAF), BRAF (shBRAF), or RAF1 (CRAF) (shCRAF) and treated with the pan-RAF inhibitor AZ-628 at 100 nm, 1 μM, and 10 μM concentrations or a DMSO control.
It was hypothesized that the ratio of RAF1 (CRAF):ARAF versus RAF1 (CRAF):BRAF heterodimers may be important in the growth of RASK (KRAS) mutant tumors, and that this ratio may impact the efficacy of RAF kinase inhibition. To test this hypothesis, RASK (KRAS) mutant cells depleted of individual members of the RAF kinases (ARAF, BRAF or RAF1 (CRAF)) were treated with a pan-RAF dimer inhibitor (AZ-628). […] Taken together, RAF1 (CRAF) dimerization partners appear to dictate sensitivity to MAPK inhibition.

Row | Compound | effect on expression of ERK downstream substrates (MAPK target gene set) [2] | cell survival of RAF1 (CRAF)-depleted cells [3] | cell survival of RAF1 (CRAF) ablated RASK (KRAS) mutant cells [3] | rescue of cell growth in RAF1 (CRAF)-depleted RASK (KRAS) mutant cells [4] | other results
1 | O=C(c1ccc(F)c(F)c1Nc1ccc(I)cc1F)N1CC(O)([C@@H]2CCCCN2)C1 [GDC-0973] | induced suppression of ERK downstream substrates | limited cell survival | promoted cell survival | – | RAF heterodimers co-immunoprecipitated with FLAG-CRAF (RAF1:BRAF heterodimers): enriched for RAF1:BRAF heterodimers; preferential RAF dimer association of CRAF wild-type (PIKES) [1]: promoted increased CRAF: BRAF dimers in comparison to CRAF: ARAF dimers; effect on MAPK signaling (pMEK, pERK Western blot) (MAPK signaling): suppresses MAPK signaling
2 | CO/C1=C\C(C)=C\[C@@H](C)[C@@H](O)[C@@H](C)C/C(C)=C/C=C/[C@H](OC)[C@@H]([C@@H](C)[C@@H](O)[C@H](C)[C@@]2(O)C[C@@H](O)[C@H](C)[C@@H](C(C)C)O2)OC1=O [bafilomycin] | – | – | – | did not rescue cell growth | –
3 | CN1C(=O)C(Cc2c[nH]c3ccccc23)NC1=S (centres unmarked) [NEC1] | – | – | – | did not rescue cell growth | –
4 | Cc1ccc(NC(=O)c2cccc(C(C)(C)C#N)c2)cc1Nc1ccc2ncn(C)c(=O)c2c1 [AZ-628] | – | – | – | – | sensitivity of colony growth to RAF dimer inhibition ([5]; ARAF ablation in RASK (KRAS) mutant cells): sensitized cells to RAF dimer inhibition; sensitivity of colony growth to RAF dimer inhibition ([5]; BRAF ablation in RASK (KRAS) mutant cells): less sensitive to RAF dimer inhibition
5 | Cn1nccc1Nc1nccc(-c2ccn([C@H](CO)c3ccc(Cl)c(F)c3)c(=O)c2)n1 [GDC-0994] | induced suppression of ERK downstream substrates | limited cell survival | promoted cell survival | – | –
6 | COC(=O)C[C@H](NC(=O)[C@H](C)NC(=O)[C@@H](NC(=O)OCc1ccccc1)C(C)C)C(=O)CF [Z-VAD-FMK] (Cbz-Val-Ala-Asp(OMe)-CH2F) | – | – | – | did not rescue cell growth | –
